Experimental data: paper PMC7809356, “Structural characterization of a GNAT family acetyltransferase from Elizabethkingia anophelis bound to acetyl-CoA reveals a new dimeric interface” (Scientific Reports, 2021)

Legend:
[1] = molecular target: T1, GNAT family acetyltransferase from Elizabethkingia anophelis (BAY10_3400) (Elizabethkingia anophelis, UniProt Z9UBX7MZA9); test: X-ray crystallography, […] A; assay type: binding; conditions: co-crystallised with 5 mM acetyl-CoA, 100 mM Tris/HCl pH 5.5, 2 M ammonium sulfate, 285 K; active site
T1 construct: full length, non-cleavable N-terminal His6-tag (vector BG1861), expressed in E. coli Rosetta BL21(DE3)R3; all residues modelled except N-terminal Met; monomer and dimer in SEC, crystal from dimer peak

[2] = molecular target: GNAT family acetyltransferase from Elizabethkingia anophelis (Elizabethkingia anophelis); test: SEC; preparative HiLoad 26/60 Superdex 75 in 25 mM HEPES, 500 mM NaCl, 5% glycerol, 2 mM DTT, 0.025% azide pH 7.0; calibrated with conalbumin, ovalbumin and ribonuclease A; molecular weights from the elution volume

Molecule | X-ray crystallography, 1.85 A [1] | stoichiometry N [2]
CC(=O)SCCNC(=O)CCNC(=O)[C@H](O)C(C)(C)COP(=O)(O)OP(=O)(O)OC[C@H]1O[C@@H](n2cnc3c(N)ncnc32)[C@H](O)[C@@H]1OP(=O)(O)O [acetyl-CoA] | Our structure contained a well-ordered acetyl-CoA molecule bound in the active site | –
GNAT family acetyltransferase from Elizabethkingia anophelis (enzyme) | – | 2
